± gives the standard deviation of the averaged measurements.
Tests used:
Assay in all cases: EC50 for viability (resazurin, 96 h)
[1] = test system: HCT116; conditions: RPMI+GlutaMAX (10% FBS, 1% P/S)
[2] = test system: PA-TU-8988T; conditions: DMEM+GlutaMAX (5% dFBS, 1% P/S)
[3] = test system: SW620 MTHFD2 -/-; conditions: RPMI+GlutaMAX (5% dFBS, 1% P/S)
[4] = test system: SW620 MTHFD2-/-; conditions: RPMI+GlutaMAX (5% dFBS, 1% P/S)
[5] = test system: SW620 WT
[6] = test system: SW620

Nc1nc(N)c(NC(=O)Nc2cnc(C(=O)N[C@@H](CCc3nnn[nH]3)C(=O)O)c(F)c2)c(=O)[nH]1
Conditions	EC50 for viability [nM]
[1], metabolite supplement: Hypoxanthine	6.57
[1], metabolite supplement: Vehicle	13.1
[2], metabolite supplement: Thymidine	1.6
[2], metabolite supplement: Vehicle	1.31
[3], metabolite supplement: Hypoxanthine	1.53
[3], metabolite supplement: Sodium Formate	12.5
[3], metabolite supplement: Thymidine	0.604 ± 0.97
[3], metabolite supplement: Thymidine + Sodium Formate	129
[3], metabolite supplement: Vehicle	0.506 ± 0.64
[4], metabolite supplement: Hypoxanthine + Formate	15.8
[4], metabolite supplement: Vehicle	0.501

Conditions	EC50 for viability [nM]
[5], RPMI+GlutaMAX (5% dFBS, 1% P/S), metabolite supplement: Adenine	15.3
[5], RPMI+GlutaMAX (5% dFBS, 1% P/S), metabolite supplement: Adenosine	16.6
[5], RPMI+GlutaMAX (5% dFBS, 1% P/S), metabolite supplement: Guanosine	19.9
[5], RPMI+GlutaMAX (5% dFBS, 1% P/S), metabolite supplement: Hypoxanthine	14.1 ± 4.2
[5], RPMI+GlutaMAX (5% dFBS, 1% P/S), metabolite supplement: Hypoxanthine + AICAr 10 µM	12.3
[5], RPMI+GlutaMAX (5% dFBS, 1% P/S), metabolite supplement: Hypoxanthine + AICAr 30 µM	16.4
[5], RPMI+GlutaMAX (5% dFBS, 1% P/S), metabolite supplement: Hypoxanthine + AICAr 50 µM	20
[5], RPMI+GlutaMAX (5% dFBS, 1% P/S), metabolite supplement: Hypoxanthine + AICAr 100 µM	> 10000
[5], RPMI+GlutaMAX (5% dFBS, 1% P/S, 10 uM Hypoxanthine), metabolite supplement: Thymidine 0.1 uM	16.5
[5], RPMI+GlutaMAX (5% dFBS, 1% P/S, 10 uM Hypoxanthine), metabolite supplement: Thymidine 0.5 uM	24.3
[5], RPMI+GlutaMAX (5% dFBS, 1% P/S, 10 uM Hypoxanthine), metabolite supplement: Thymidine 1uM	13.7
[5], RPMI+GlutaMAX (5% dFBS, 1% P/S, 10 uM Hypoxanthine), metabolite supplement: Thymidine 5uM	> 10000
[5], RPMI+GlutaMAX (5% dFBS, 1% P/S, 10 uM Hypoxanthine), metabolite supplement: Thymidine 10 uM	> 10000
[5], RPMI+GlutaMAX (5% dFBS, 1% P/S, 10 uM Hypoxanthine), metabolite supplement: Thymidine 25 uM	> 10000
[5], RPMI+GlutaMAX (5% dFBS, 1% P/S, 10 uM Hypoxanthine), metabolite supplement: Thymidine 50 uM	> 10000
[5], RPMI+GlutaMAX (5% dFBS, 1% P/S, 10 uM Hypoxanthine), metabolite supplement: Vehicle	13.6
[5], RPMI+GlutaMAX (5% dFBS, 1% P/S, 50 uM Hypoxanthine), metabolite supplement: Thymidine 0.1 uM	17.5
[5], RPMI+GlutaMAX (5% dFBS, 1% P/S, 50 uM Hypoxanthine), metabolite supplement: Thymidine 0.5 uM	14.5
[5], RPMI+GlutaMAX (5% dFBS, 1% P/S, 50 uM Hypoxanthine), metabolite supplement: Thymidine 1uM	12.5
[5], RPMI+GlutaMAX (5% dFBS, 1% P/S, 50 uM Hypoxanthine), metabolite supplement: Thymidine 5uM	> 10000
[5], RPMI+GlutaMAX (5% dFBS, 1% P/S, 50 uM Hypoxanthine), metabolite supplement: Thymidine 10 uM	> 10000
[5], RPMI+GlutaMAX (5% dFBS, 1% P/S, 50 uM Hypoxanthine), metabolite supplement: Thymidine 25 uM	> 10000
[5], RPMI+GlutaMAX (5% dFBS, 1% P/S, 50 uM Hypoxanthine), metabolite supplement: Thymidine 50 uM	> 10000
[5], RPMI+GlutaMAX (5% dFBS, 1% P/S, 50 uM Hypoxanthine), metabolite supplement: Vehicle	13
[6], HPLM (5% dFBS, 1% P/S), metabolite supplement: Vehicle	12.7
[6], RPMI+GlutaMAX (5% FBS, 1% P/S), metabolite supplement: Vehicle	13.4
[6], RPMI+GlutaMAX (5% dFBS, 1% P/S), metabolite supplement: 50 µM Hypoxanthine	14 ± 4.3
[6], RPMI+GlutaMAX (5% dFBS, 1% P/S), metabolite supplement: Vehicle	14.7
[6], RPMI+GlutaMAX (10% FBS, 1% P/S), metabolite supplement: Folic acid	597
[6], RPMI+GlutaMAX (10% FBS, 1% P/S), metabolite supplement: Folinic acid	687
[6], RPMI+GlutaMAX (10% FBS, 1% P/S), metabolite supplement: Hypoxanthine	10.4
[6], RPMI+GlutaMAX (10% FBS, 1% P/S), metabolite supplement: Sodium Formate	12.7
[6], RPMI+GlutaMAX (10% FBS, 1% P/S), metabolite supplement: Thymidine	> 10000
[6], RPMI+GlutaMAX (10% FBS, 1% P/S), metabolite supplement: Thymidine + Folic acid	1920
[6], RPMI+GlutaMAX (10% FBS, 1% P/S), metabolite supplement: Vehicle	9.47 ± 2.1
